In ChEMBL document CHEMBL4619773, “Chemoreactive-Inspired Discovery of Influenza A Virus Dual Inhibitor to Block Hemagglutinin-Mediated Adsorption and Membrane Fusion” (J Med Chem, 2020):

Tested on: Influenza A virus
Format: functional, organism-based

`CC(=O)c1cc(C)c(O)c(Cc2[nH]c3ccccc3c2Cc2c(O)c(C)cc(C(C)=O)c2O)c1O` was tested. Which IC50 did it give?
Its IC50 is > 42 µg/mL.
